Reference: ChEMBL document CHEMBL1201862, “PubChem BioAssay data set” (2004)
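Five compound concentrations were applied to cells in 96-well plates for 48 hours; endpoints were derived by simple linear interpolation of the resulting dose-response curve. Here, GI50 denotes the concentration required for 50% inhibition of growth.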 Calls of active or inactive are those of the source. No stated cut-off is given here; in the data, active = GI50 up to about 1.1 µM and inactive = higher.

Legend:
Assay in all cases: inhibition of tumour cell growth, NCI panel, 48 h
SN12C = tested on: SN12C
RPMI-8226 = tested on: RPMI-8226
HOP-92 = tested on: HOP-92
IGROV-1 = tested on: IGROV-1
ACHN = tested on: ACHN
U-251 = tested on: U-251
SK-OV-3 = tested on: SK-OV-3
SF-295 = tested on: SF-295
HOP-62 = tested on: HOP-62
COLO 205 = tested on: COLO 205
TK-10 = tested on: TK-10
CCRF-CEM = tested on: CCRF-CEM
SNB-19 = tested on: SNB-19
MCF7 = tested on: MCF7
UACC-62 = tested on: UACC-62
NCI-H522 = tested on: NCI-H522
OVCAR-8 = tested on: OVCAR-8
HT-29 = tested on: HT-29
OVCAR-3 = tested on: OVCAR-3
786-0 = tested on: 786-0

Measured: GI50

Cc1ccc(C(=O)N/N=C(\N=N\c2cccc([N+](=O)[O-])c2)c2ccc(N(CCC#N)CCC#N)cc2C)cc1
inactive: SN12C 46.6 µM | RPMI-8226 13 µM | HOP-92 45.9 µM | IGROV-1 19.2 µM | ACHN 42.9 µM | U-251 36.1 µM | SK-OV-3 36.8 µM | SF-295 26.9 µM | HOP-62 25.4 µM | COLO 205 4.73 µM | TK-10 45.1 µM | CCRF-CEM 24.8 µM | SNB-19 53.7 µM | MCF7 13.2 µM | UACC-62 26.1 µM | NCI-H522 20.4 µM | OVCAR-8 23.2 µM | HT-29 29.2 µM | OVCAR-3 2.32 µM | 786-0 34.4 µM

CN(C)CCCCN1c2ccccc2Sc2ccc(N=[N+]=[N-])cc21
inactive: SN12C 8.43 µM | RPMI-8226 2.29 µM | HOP-92 3.56 µM | IGROV-1 3.08 µM | ACHN 3.2 µM | U-251 3.13 µM | SK-OV-3 12.9 µM | SF-295 5.66 µM | HOP-62 11.5 µM | COLO 205 1.72 µM | TK-10 12.1 µM | CCRF-CEM 2.69 µM | SNB-19 8.85 µM | MCF7 2.45 µM | UACC-62 1.88 µM | NCI-H522 4.09 µM | OVCAR-8 10 µM | HT-29 2.22 µM | OVCAR-3 6.05 µM | 786-0 8.69 µM

COc1ccc2c(c1)CCCc1c-2nc2ccccc2c1N
inactive: SN12C 4.38 µM | RPMI-8226 5.87 µM | HOP-92 5.73 µM | IGROV-1 12.4 µM | ACHN 13.6 µM | U-251 12.7 µM | SK-OV-3 10.4 µM | SF-295 11.1 µM | HOP-62 1.52 µM | COLO 205 1.69 µM | TK-10 10.7 µM | CCRF-CEM 5.24 µM | SNB-19 15.9 µM | MCF7 11.2 µM | UACC-62 12.3 µM | NCI-H522 13.6 µM | OVCAR-8 12.9 µM | HT-29 3.3 µM | OVCAR-3 12.9 µM | 786-0 6.11 µM

Cc1ccc(S(=O)(=O)N/N=C2/C3CCC(C3)C2c2ccccc2)cc1 (stereo not given)
inactive: SN12C > 100 µM | RPMI-8226 > 100 µM | HOP-92 > 100 µM | IGROV-1 > 100 µM | ACHN > 100 µM | U-251 > 100 µM | SK-OV-3 > 100 µM | SF-295 > 100 µM | HOP-62 > 100 µM | COLO 205 > 100 µM | TK-10 > 100 µM | CCRF-CEM > 100 µM | SNB-19 > 100 µM | MCF7 > 100 µM | UACC-62 > 100 µM | NCI-H522 > 100 µM | OVCAR-8 > 100 µM | HT-29 > 100 µM | OVCAR-3 > 100 µM | 786-0 > 100 µM
